# Data reported in patent publication US20240390377A1, “COMPOSITION FOR THE PREVENTION OR TREATMENT OF NEURODEGENERATIVE OR MOTOR NEURON DISEASES COMPRISING HALOFUGINONE AS AN ACTIVE INGREDIENT” (CURAMYS CO., LTD., priority 2022, published 2024).
# What was measured:
# [1] = test system: G93A mutant SOD1 transgenic mice; assay: Western blot analysis of lumbar spinal cord in ALS animal model; assay type: in vivo, mouse
# Experimental: As a control group, non-transgenic mice were injected intraperitoneally (i.p.) with vehicle (DMSO) in the same manner for the same period of time.
# (§1) Specifically, the lumbar spinal cord or knee joint of the mouse of Example 6 was separated and immediately frozen at −80° C. Each lumbar spinal cord or knee joint was then homogenized and chemically treated to obtain cells. The chemically treated cells, the C2C12 cells of Example 1 or the fibroblasts of Example 5 were dissolved in a RIPA buffer (Thermo, MA, USA) with a protease inhibitor and a phosphatase inhibitor (Roche, IN, USA) and incubated on ice for 30 minutes. After centrifugation of the lysate at 13,000 rpm at 4° C. for 20 min, insoluble substances were removed. Protein concentrations were measured by BCA analysis (Pierce Biotechnology). Equal volumes of cell lysate were loaded onto SDS-PAGE gels for electrophoresis, and transferred onto nitrocellulose membranes (Amersham Protran 0.2 um NC, Amersham Pharmacia Biotech, Piscataway, NJ, USA). The membranes were then blocked with 5% (w/v) skimmilk in 1×TBST for 1 h at room temperature. After blocking, anti-RB-actin antibody (1:5000; Santa Cruz, cat #sc47778), anti-Smad2 antibody (1:1000; Cell Signaling, cat #5339), anti-p-Smad2 antibody (1:1000; Cell Signaling, cat #3108), anti-TGF-β1 antibody (1:1000; Santa Cruz, cat #sc130348), anti-α-SMA antibody (1:10000; abcam cat #ab7817), anti-MyoD antibody (1:1000; cat #sc377460), anti-collagen|antibody (1:1000; abcam cat #ab21286), anti-cleaved caspase-3 antibody (1:1000; Cell Signaling, cat #9661), anti-bax antibody (1:500; Santa Cruz, cat #sc493), anti-bcl2 antibody (1:1000; Novus Biologics, cat #NB100-56098), anti-ChAT antibody (1:1000; Millipore, cat #AB144) were treated and incubated overnight at 4° C. […] The membranes were then washed, briefly incubated with the SuperSignal West Pico Plus Chemical Substructure (Pierce Biotechnology) according to the manufacturer's procedure, and quantified with an image analyzer (Amersham Pharmacia Biotech, Piscataway, NJ, USA). β-actin was used as an internal control group. The concentration measurement of protein intensity was quantified using Image J (National Institutes of Health).
# In addition, to investigate the motor neuron source of the spinal cord, motor neurons of the lumbar spinal cord were observed and counted in the same manner as described in Example 9 (FIG. 9d), and real-time qRT-PCR and Western blot analysis were performed in the same manner as described in Example 11 and Example 12 to quantitatively analyze the expression of ChAT mRNA (FIG. 9e) and ChAT protein (FIG. 9f). […]
# [2] = test system: G93A mutant SOD1 mouse-derived fibroblasts; assay: Western blot analysis of ALS animal model-derived fibroblasts; assay type: cell-based; settings: low or high concentration halofuginone for 24 hours; elevation vs Non-TG fibroblasts (FIG. 5b)
# Description: Specifically, primary fibroblasts were isolated from skeletal muscle of 120-day-old non-transformed or G93A mutant SOD1 transgenic mice of Example 4. The excised tissue was placed on 100-mm culture dishes containing HBSS (Hanks' Balanced Salt Solution; Gibco, cat #14175095) and penicillin-streptomycin (Cat #15070-063, Thermo Fisher Scientific) without calcium and magnesium. Muscle tissue was cut on ice blocks. Then, the tissue was cut into 1 mm pieces and enzymatically reacted with 0.2% IV type collagenase (Sigma) at 37° C. for 1 hour. The enzymatic reaction was stopped by the addition of 10 ml of FBS (Gibco). The tissue mixture was centrifuged at 1,800 rpm at 4° C. for 5 min and resuspended with DMEM medium (Welgene) with 10% FBS. Cells were filtered through a 70 μm cell filter (BD Biosciences, San Jose, CA) and incubated in 0.2% gelatin-coated plates with DMEM medium with 10% FBS, 1% penicillin-streptomycin. Then, halofuginone was treated in the same manner as described in Example 1.
# as §1, with “temperature.” for “temperature. After blocking, anti-RB-actin antibody (1:5000; Santa Cruz, cat #sc47778), anti-Smad2 antibody (1:1000; Cell Signaling, cat #5339), anti-p-Smad2 antibody (1:1000; Cell Signaling, cat #3108), anti-TGF-β1 antibody (1:1000; Santa Cruz, cat #sc130348), anti-α-SMA antibody (1:10000; abcam cat #ab7817), anti-MyoD antibody (1:1000; cat #sc377460), anti-collagen|antibody (1:1000; abcam cat #ab21286), anti-cleaved caspase-3 antibody (1:1000; Cell Signaling, cat #9661), anti-bax antibody (1:500; Santa Cruz, cat #sc493), anti-bcl2 antibody (1:1000; Novus Biologics, cat #NB100-56098), anti-ChAT antibody (1:1000; Millipore, cat #AB144) were treated and incubated overnight at 4° C.”, “Health). […]” for “Health).”
# [3] = 120 days of age, change in DMSO TG vs DMSO Non-TG (FIG. 11b)
compound,measurement,setting,value
O=C(C[C@H]1NCCC[C@@H]1O)Cn1cnc2cc(Br)c(Cl)cc2c1=O (racemic) [halofuginone],ChAT expression (protein) in lumbar spinal cord,"[1]; 120-day-old mice, compared to DMSO Non-TG group (FIG. 9f)",preserved similarly
same,decreased protein expression of bcl-2 in lumbar spinal cord,[1]; [3],improved
same,increased protein expression of bax in lumbar spinal cord,[1]; [3],improved
same,increased protein expression of cleaved caspase-3 in lumbar spinal cord,[1]; [3],improved
same,elevated Col-I protein expression,[2],attenuated
same,elevated TGF-β protein expression,[2],attenuated
same,elevated p-Smad2/Smad2 ratio,[2],attenuated
same,elevated α-SMA protein expression,[2],attenuated
